Assay: gradient 5% acetonitrile 3 min, to 50% in 2 min, to 85% in 15 min, held 3 min, 100 µL/min
Settings: column: Zorbax Extend-C18 2.1 x 50 mm; eluents: water / acetonitrile, 0.1% formic acid
Method in brief: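 Retention times come from adduct peaks that were picked computationally and then checked by hand. The standards, pure and pooled in mixtures of ~100 molecules, were run on a Zorbax Extend-C18 column (2.1 × 50 mm, 1.8 μm) at 100 μL/min with water and acetonitrile, each with 0.1% formic acid. Detection was by quadrupole time-of-flight mass spectrometry in positive and negative ionization mode, with a dead volume of 40 μL and a dwell volume of 900 μL.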

Row | RP-LC retention time [s] | SMILES
1 | 642 | CNCc1ccc(-c2[nH]c3cc(F)cc4c3c2CCNC4=O)cc1
2 | 682 | COc1cc(OC)c(NC(=O)Nc2c(-c3ccccc3)nc3ccccn23)cc1Cl
3 | 939 | CC(C)c1ccc(NC(=O)C2CCCN(S(=O)(=O)c3c[nH]c(C(=O)N4CCCC4)c3)C2)cc1 (centres undefined)
4 | 621 | O=C1CCCc2cc(S(=O)(=O)NCCN3CCN(c4ccccc4F)CC3)ccc2N1
5 | 936 | O=C(NC1CCCCCCC1)C1CCN(C(=O)c2ncn3c2COC(c2ccc(Cl)cc2)C3)CC1 (centres undefined)
6 | 555 | CNC(=O)N1CCC(OC2CCN(Cc3ccccc3)CC2)CC1
7 | 784 | Cc1ccc(CNC(=O)C2(C)Cn3cnc(C(=O)N4CCCCC4)c3C(=O)N2C2CC2)cc1 (centres undefined)
8 | 584 | CCNC(=O)Nc1ccc(OCC(=O)NC2CCN(Cc3ccccc3)CC2)nc1
9 | 647 | COCCNC(=O)Nc1nnc(-c2ccccc2Cl)o1
10 | 702 | CCOC(=O)c1c(C)oc2nc(C)nc(NCC3CCN(Cc4ccccc4F)CC3)c12
11 | 688 | O=C(NCc1cccs1)c1ccc2c(c1)NC(=O)C1CCCCN21 (centres undefined)
12 | 956 | COc1ccc(C2OC(c3cc(Cl)ccc3OC(C)=O)=NN2C(C)=O)cc1 (centres undefined)
13 | 739 | O=C(Cc1ccc(NC(=O)c2cc(=O)c3ccccc3o2)cc1)NCc1cccs1
14 | 652 | COCCCNC(=O)C1CCCN(C(=O)c2[nH]c(C)cc2C)C1 (centres undefined)
15 | 623 | O=C(O)CCCCCNc1nc(-c2ccccc2)nc2ccccc12
16 | 1050 | O=C(NCc1noc(-c2cccc(Cl)c2)n1)c1coc(-c2ccccc2)n1
17 | 617 | COc1ccc(NC(=O)CSc2ccc(N3CCCC(C(=O)NC4CC4)C3)nn2)cc1 (centres undefined)
18 | 1090 | CC(C)c1cc(C(=O)Nc2ccc(F)cc2)nc2ccnn12
19 | 736 | CCc1cccc(NC(=O)Cc2nnc(-c3cnccn3)o2)c1
20 | 618 | Cc1ccc(N2CCC(NC(=O)Nc3cc(C)ccc3C)C2=O)cc1 (centres undefined)
21 | 570 | COCCNC(=O)Cn1c(N2CCCC2)nc(COC)cc1=O
22 | 754 | CCn1cnc(S(=O)(=O)N2CCCC(C(=O)Nc3cccc(C)c3C)C2)c1 (centres undefined)
23 | 832 | O=C(NCCc1c[nH]c2ccccc12)C(=O)c1cn(CC(=O)N2CCOCC2)c2ccccc12
24 | 928 | CCOC(=O)c1sc(NC(=O)c2cc(C)n(C)n2)nc1-c1ccccc1
25 | 690 | CCOc1c(C)cc(S(=O)(=O)NCC2(O)CCOCC2)cc1C

Row | RP-LC retention time [s] | SMILES
26 | 722 | O=C(Nc1ccccn1)c1ccc(S(=O)(=O)NC2CCCC2)cc1
27 | 654 | O=C(NCc1ccc(Cl)cc1)NCC1(CO)CC1
28 | 587 | Cc1cc(N2CCN(C)CC2)nc2ccc(NC(=O)Nc3ccc(F)cc3)cc12
29 | 888 | Cn1nnnc1SCC(=O)Nc1nc(-c2ccccc2)c(-c2ccccc2)o1
30 | 923 | O=c1n(Cc2ccc(F)cc2)nc2ccc(S(=O)(=O)N3CCCCC3)cn12
31 | 755 | CN(CC1CCOC1)S(=O)(=O)Cc1ccccc1F (centres undefined)
32 | 776 | COc1ccc(NC(=O)c2c[nH]c3nc(C)ccc3c2=O)cc1
33 | 832 | Cc1ccc(NC(=O)N2CCC(n3cnc4cc(F)ccc4c3=O)CC2)cc1F
34 | 597 | CS(=O)(=O)N1CCCc2cc(C(=O)NCCCn3ccnc3)ccc21
35 | 1300 | CC(C)(C)c1csc(-c2csc(S(=O)(=O)NCc3ccc(Br)cc3)c2)n1
36 | 711 | CCCn1cc(-c2ccncc2)cc1C(=O)NCc1cc(F)cc(F)c1
37 | 847 | Cc1cc2c(=O)n(CC(=O)Nc3cc(Cl)ccc3C)ccc2s1
38 | 968 | O=C(Nc1ccc2c(c1)CCCN2C(=O)C1CC1)c1nc2ccccc2s1
39 | 709 | CC(C)n1cc2cc(C(=O)N(C)CCc3ccncc3)sc2c1
40 | 817 | CCOC(=O)c1ccc(NC(=O)NCc2ccccc2)cc1
41 | 593 | CCN1CCN(C(=O)C2CCN(c3nnc(-c4ccc(OC)cc4)o3)CC2)CC1
42 | 652 | C=CCN1CCc2cc(O)c(O)cc2C(c2ccccc2)C1 (centres undefined)
43 | 786 | Cc1noc(C2CN(C(=O)Nc3cccc(Cl)c3)CC23CCOCC3)n1 (centres undefined)
44 | 728 | COc1ccc(CNC(=O)C2CCCN2S(=O)(=O)c2cc3c(cc2C)NC(=O)CO3)cc1 (centres undefined)
45 | 666 | CCOc1ccc(NC(=O)Cn2c(CC)nc3c(c2=O)CN(Cc2ccccc2)CC3)cc1
46 | 618 | O=C(NCCN1CCc2ccccc2C1)c1cn2nc(Cl)ccc2n1
47 | 830 | CNC(=O)c1cc(COc2ccc(NC(=O)c3ccc(Br)cc3)cc2)on1
48 | 684 | Cc1ccc(Cc2c(C)nc3c(C(=O)NCCCN4CCOCC4)cnn3c2C)cc1
49 | 867 | Cn1nc(-c2nc(Cc3ccccc3)no2)c2c1CCN(C(=O)NC1CCCC1)C2

Continued, molecule first:

Row | SMILES | RP-LC retention time [s]
50 | CC(=O)N1CCC(C(=O)N2CCCCCCN(C)C(=O)[C@@H]3CCC[C@@H]32)CC1 | 658
51 | Cc1ccc(S(=O)(=O)N2CCC(n3c(-c4ccoc4)nc4cccnc43)C2)cc1Cl (centres undefined) | 986
52 | CN1C(=O)c2ccccc2C(C(=O)N2CCN(c3ccccn3)CC2)C1c1cccs1 (centres undefined) | 608
53 | CC1CCN(C(=O)CN2C(=O)C3CCCCN3c3ccc(S(=O)(=O)N(C)C)cc32)CC1 (centres undefined) | 910
54 | COc1ccc2c(c1)c(CN1CCC(C(=O)NC3CCCCCC3)CC1)cn2C | 712
55 | COc1ccc(-c2cc3nn(CC(=O)N4CCC(C)CC4)c(=O)n3c(C)n2)cc1 | 894
56 | COc1ccc(-c2cc3c(=O)n(Cc4noc(CN5CCCC(C)C5)n4)ccn3n2)cc1 (centres undefined) | 675
57 | Nc1nc2c(cnn2CCc2ccccc2)c2nc(-c3ccco3)nn12 | 880
58 | Cc1ccc(-c2noc(C3CCCN3S(=O)(=O)c3ccc(C)c(Cl)c3)n2)cc1 (centres undefined) | 1290
59 | COc1ccc(-c2csc(NC(=O)Cn3c(=O)oc4ccccc43)n2)cc1 | 933
60 | CC(=O)Nc1ccc(S(=O)(=O)N2CCc3c(c(-c4nnc(-c5ccc(F)cc5)o4)nn3C)C2)cc1 | 783
61 | COc1cc(C2CC(=O)c3cnc(N4CCN(C)CC4)nc3C2)cc(OC)c1OC (centres undefined) | 628
62 | O=C(C1CCN(c2nc3ccc(-c4cccnc4)nc3s2)CC1)N1CCCCC1 | 652
63 | CCOC(=O)c1nc2ccccc2nc1N1CCN(c2ccccn2)CC1 | 666
64 | CC(C)Cn1nc2ccc(S(=O)(=O)N3CCOCC3)cn2c1=O | 732
65 | Cc1ccccc1-c1noc(-c2nnn3c2COC(c2ccc(F)cc2)C3)n1 (centres undefined) | 1000
66 | CC(C)CNC(=O)c1ccn[nH]1 | 604
67 | CC(=O)N1c2ccc(S(=O)(=O)N3CCCCC3)cc2CC1C(=O)NC1CCCC1 (centres undefined) | 830
68 | COc1ccc(-c2nc3ccc(C)cn3c2Nc2ccc3c(c2)OCCO3)cc1 | 692
69 | Cc1[nH]c2ccc(F)cc2c1CCNCc1ccccn1 | 572

Row | SMILES | RP-LC retention time [s]
70 | CC1CCN(c2cncnc2-n2cc(NC(=O)NC(C)(C)C)cn2)CC1 | 722
71 | O=C(c1cc(-c2ccncc2)n[nH]1)N1CCC(C(=O)N2CCN(C(=O)c3ccco3)CC2)CC1 | 566
72 | Cc1cc(OCC(=O)N[C@@H](CC(C)C)C(=O)O)c2c3c(c(=O)oc2c1)CCCC3 | 894
73 | CC(C)C(NC(=O)c1ccco1)c1nc(-c2ccc3c(c2)ncn3C)no1 (centres undefined) | 650
74 | CCCN1CCN(S(=O)(=O)c2cc(-c3cc(C(F)(F)F)[nH]n3)sc2C)CC1 | 707
75 | CCC(=O)N1CCCC(C(=O)N2CCOCC2)C1 (centres undefined) | 564
76 | O=C(NCCC1=CCCCC1)C1CCN(c2ncccc2S(=O)(=O)N2CCCCC2)CC1 | 1080
77 | CNC(=O)c1csc(N2CCCC2)n1 | 671
78 | CCOc1ccc(-n2nnc(-c3nc(-c4cccc(OC)c4)cs3)c2N)cc1 | 1130
79 | Cc1ccc(Nc2c(-c3ccc(C)cc3)nc3c(C)cccn23)cc1 | 808
80 | Cc1cc(C)cc(NC(=O)N2CC(c3nc(C)no3)C3(CCOCC3)C2)c1 (centres undefined) | 706
81 | Cc1ccc(NC(=O)c2c(O)c3cccnc3n(-c3ccc(F)cc3)c2=O)c(C)c1 | 1320
82 | Cc1nc2cc(-c3noc(-c4ccc(Br)cc4)n3)ccc2o1 | 1230
83 | Cc1ccccc1S(=O)(=O)N1CCN(c2nc3ccncc3n(CC(C)C)c2=O)CC1 | 775
84 | COc1ccccc1-c1nc(Cc2noc(-c3ccccc3)n2)c(C)o1 | 1040
85 | CC(C)N1C(=O)c2cccnc2Sc2cc(NC(=O)C3CCCO3)ccc21 (centres undefined) | 729
86 | Cc1cc(C)cc(NC(=O)C2CCc3sc(C(=O)N4CCOCC4)cc3C2)c1 (centres undefined) | 856
87 | Cc1ccc(-c2noc(C3CCCN3C(=O)C(NS(=O)(=O)c3ccc(C)cc3)C(C)C)n2)cc1 (centres undefined) | 1150
88 | COc1ccc(N2CC(c3nc(-c4ccc(Br)cc4)no3)CC2=O)cc1OC (centres undefined) | 977
89 | Cc1nc(-c2csc(S(=O)(=O)N3CCC(C(=O)NC(C)Cc4ccco4)CC3)c2)no1 (centres undefined) | 843

Reference: the METLIN SMRT retention time set (Domingo-Almenara et al. 2019)
